For orientation: AUC(0-inf) means the area under the concentration-time curve extrapolated to infinity. The low end stands for low exposure, the high end for high exposure. As a reminder, the AUC(0-t) is exposure summed from dosing to a finite time, without extrapolation to infinity. What is called Cmax is the peak of the concentration-time curve. As a reminder, the Tmax is the time from dosing to the highest level. The term half-life denotes how long it takes for the measured level to halve. High values mean slow loss, low ones fast loss.

This note sets out measurements from publication PMC9058666 (RSC Advances, 2020).

The conditions of data set [1]: SD, rat, in vivo, po.
A short description of the next data set: in vivo. The conditions noted are these: SD, rat, po, 50 mg/kg.

Molecules are shown by their SMILES.

With `O=c1[nH]cc(F)c(=O)[nH]1` [5-FU, 5-Fluorouracil], in data set [1], the “Cmax of 5-FU (from Fig. 7, mean plasma concentration-time profile)” value was 20000 ng/mL and the “time at which Cmax was reached (from Fig. 7)” value is 0.5 h. In “in vivo”, the AUC(0-inf) was determined as 54600 ± 15000 ng·h/mL, the AUC(0-t) came to 50400 ± 10800 ng·h/mL, the Cmax is 21000 ± 1980 ng/mL and the Tmax turned out to be 0.667 ± 0.289 h. This compound had a half-life in the data set “in vivo” of 1.47 ± 0.449 h.
